Test results taken from patent EP4678634A1, “ANDROGEN RECEPTOR MODULATORS AND USES THEREOF” (Haihe Biopharma Co., Ltd., priority 2023, dated 2024).

target: T1, Androgen receptor (AR) (Homo sapiens, UniProt P10275); assay: Androgen receptor (AR) reporter gene assay (luciferase); type: cell-based; settings: AR+ARE/Luc HEK293T cells, stimulated with 11-KDHT, 24h incubation, Bright-Lite luminescence; read-out: HEK293 Luc IC50
T1 construct: expressed in transfected cells; host or cells: HEK293T (AR+ARE/Luc)
T1 sequence (P10275 1-920): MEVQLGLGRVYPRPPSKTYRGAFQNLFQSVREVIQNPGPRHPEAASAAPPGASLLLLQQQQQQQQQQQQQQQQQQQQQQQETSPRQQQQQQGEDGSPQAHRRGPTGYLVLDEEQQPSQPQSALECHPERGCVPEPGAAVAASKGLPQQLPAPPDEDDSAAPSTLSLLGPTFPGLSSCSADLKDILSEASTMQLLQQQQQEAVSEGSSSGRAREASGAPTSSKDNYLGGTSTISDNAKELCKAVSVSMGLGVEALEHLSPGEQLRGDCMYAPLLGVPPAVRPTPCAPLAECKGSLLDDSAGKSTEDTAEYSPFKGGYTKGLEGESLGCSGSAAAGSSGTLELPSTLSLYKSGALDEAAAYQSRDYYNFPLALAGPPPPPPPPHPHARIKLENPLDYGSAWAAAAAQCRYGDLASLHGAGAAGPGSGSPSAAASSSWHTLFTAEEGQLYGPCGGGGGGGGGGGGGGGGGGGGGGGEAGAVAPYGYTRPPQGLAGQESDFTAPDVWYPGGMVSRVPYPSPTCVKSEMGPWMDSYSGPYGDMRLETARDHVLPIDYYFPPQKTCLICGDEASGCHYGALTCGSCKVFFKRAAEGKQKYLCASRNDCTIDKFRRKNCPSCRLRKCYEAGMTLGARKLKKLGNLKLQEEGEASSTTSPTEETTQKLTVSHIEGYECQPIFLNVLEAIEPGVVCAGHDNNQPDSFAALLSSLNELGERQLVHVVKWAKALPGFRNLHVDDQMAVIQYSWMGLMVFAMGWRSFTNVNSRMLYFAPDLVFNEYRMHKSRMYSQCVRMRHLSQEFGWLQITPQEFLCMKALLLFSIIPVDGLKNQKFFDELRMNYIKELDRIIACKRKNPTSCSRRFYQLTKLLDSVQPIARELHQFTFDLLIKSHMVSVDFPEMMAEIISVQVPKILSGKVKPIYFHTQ
Protocol: Androgen receptor (AR) reporter gene assay
Experimental reagents: 11-Ketodihydrotestosterone (11-KDHT) was purchased from MCE (cat.HY-135794); Enzalutamide (MDV3100) was purchased from Selleck (cat.S1250); Bright-Lite Luciferase Assay kit was purchased from Vazyme (cat.DD1204-01);
• 1. dissolve the described compounds in 100% DMSO at a final concentration of 10 mM. 100 nL each of 400X compound to be tested and 400X 11-KDHT (40 nM) were added to a 384-well assay plate with Echo, followed by 20 µL of complete medium, and centrifuged at 1000 rpm for 1 min, and oscillated for 20-30 min at room temperature. • 2. 20 µL of AR+ARE/Luc HEK293T cells (10,000 cells/well) were inoculated into the assay plate containing the compounds and 11-KDHT, and centrifuged at 1000 rpm for 1 min. The assay plate was incubated in a 37 °C CO2 incubator for 24h. • 3. 40 µL of Bright-Lite assay reagent was transferred to each well of the assay plate, centrifuged at 1000 rpm for 1 min, and shaken for 2 min at room temperature protected from light. Luminescence values (RLU) were measured using Envision. Based on the results, the IC50 values of the compounds described were calculated. Table 1 HEK293-Luc% inhibition IC50 of representative compounds

SMILES	IC50 [nM]
Cn1ccc(NC2CCCc3c2cc(C#N)c(OCCCl)c3Cl)cc1=O (centres unmarked) [HANT-261]	500 to 1000
N#Cc1ccc(NC2CCCc3c2cc(C#N)c(OCCCl)c3Cl)cn1 (centres unmarked) [HANT-262]	1 to 500
CNC(=O)c1ccc(NC2CCCc3c2cc(C#N)c(OCCCl)c3Cl)cn1 (centres unmarked) [HANT-263]	1 to 500
N#Cc1cc2c(c(Cl)c1OCCCl)CCCC2NC1CCCOC1 (centres unmarked) [HANT-264]	> 2000
COc1cncc(NC2CCCc3c2cc(C#N)c(OCCCl)c3Cl)c1 (centres unmarked) [HANT-266]	1 to 500
N#Cc1cc2c(c(Cl)c1OCCCl)CCCC2Oc1cccnc1 (centres unmarked) [HANT-267]	1 to 500
CCCOc1c(C#N)cc2c(c1Cl)CCCC2Nc1ccc2[nH]ncc2c1 (centres unmarked) [HANT-268, 8-((1H-indazol-5-yl)amino)-4-chloro-3-propoxy-5,6,7,8-tetrahydronaphthalene-2-carbonitrile]	1 to 500
CCOc1c(C#N)cc2c(c1Cl)CCCC2Nc1ccc2[nH]ncc2c1 (centres unmarked) [HANT-269, 8-((1H-indazol-5-yl)amino)-4-chloro-3-ethoxy-5,6,7,8-tetrahydronaphthalene-2-carbonitrile]	1 to 500
COc1ccc(C2CCCc3c2cc(C#N)c(OCCCl)c3Cl)cc1 (centres unmarked) [HANT-334]	1 to 500
COc1ccc(C2CCCc3c2cc(C#N)c(OCCCl)c3Cl)cn1 (centres unmarked) [HANT-335]	1 to 500
Oc1ccc(C2CCCc3c2cc(Cl)c(OCCCl)c3Cl)cc1 (centres unmarked) [HANT-336A, 4-(5,7-dichloro-6-(2-chloroethoxy)-1,2,3,4-tetrahydronaphthalen-1-yl)phenol]	500 to 1000
Oc1ccc(C2CCCc3c2cc(Cl)c(OCCCl)c3Cl)cc1 (centres unmarked) [HANT-336B, 4-(5,7-dichloro-6-(2-chloroethoxy)-1,2,3,4-tetrahydronaphthalen-1-yl)phenol]	1 to 500
N#Cc1cc2c(c(Cl)c1OCCCl)CCCC2c1ccc2c(c1)C(=O)NC2 (centres unmarked) [HANT-948]	500 to 1000
Cn1nc(C2CCCc3c2cc(C#N)c(OCCCl)c3Cl)c2ccccc21 (centres unmarked) [HANT-949]	1000 to 2000
Cn1cc2c(n1)CN(C1CCCc3c1cc(C#N)c(OCCCl)c3Cl)C2 (centres unmarked) [HANT-950, 4-Chloro-3-(2-chloroethoxy)-8-(2-methyl-2,6-dihydropyrrolo[3,4-c]pyrazol-5(4H)-yl)-5,6,7,8-t etrahydronaphthalene-2-carbonitrile]	1000 to 2000
N#Cc1cc2c(c(Cl)c1OCCCl)CCCC2c1ccc2c(c1)C(=O)NC2=O (centres unmarked) [HANT-977]	1 to 500
N#Cc1cc2c(c(Cl)c1OCCCl)CCCC2c1ccc2n[nH]c(=O)n2c1 (centres unmarked) [HANT-978]	1 to 500
N#Cc1cc2c(c(Cl)c1OCCCl)CCCC2c1cc2c3c(cccc3c1)NC2=O (centres unmarked) [HANT-979, 4-Chloro-3-(2-chloroethoxy)-8-(2-oxo-1,2-dihydrobenzo[cd]indol-4-yl)-5,6,7,8-tetrahydronapht halene-2-carbonitrile]	500 to 1000
CN1C(=O)c2ccc(C3CCCc4c3cc(C#N)c(OCCCl)c4Cl)cc2C1=O (centres unmarked) [HANT-982]	1 to 500
CN1Cc2ccc(C3CCCc4c3cc(C#N)c(OCCCl)c4Cl)cc2C1=O (centres unmarked) [HANT-983]	> 2000
